For data set [1], the system named is 4T1 cells. The data set can be described thus: Detection of ROS production (CellROX Green, confocal). Type of data set: cell-based, murine. The settings on record: 100 μM, positive control. How it is done: To measure the potential oxidative stress in living cells, as a consequence of the presence of the BMNPs, CelIROX® Green Reagent (ThermoFisher) was used following the protocol recommended by the manufacturer. Briefly, cells (approximately 20×10^3 4T1/well) were seeded on glass coverslips in 24-well plates. After their exposure to different concentrations (0.1, 1, 10, 100 μg/mL), in the presence and absence of a gradient magnetic field, of BMNPs for 4 hours, the cells were washed with PBS and CelIROX® Green Reagent was added to a final concentration of 5 μM in 300 μl of DMEM medium without serum. Then, the plate was incubated in the dark at 37° C. for 30 minutes. Menadione (100 μM) was used as a positive control. After the incubation time, the coverslips were washed with PBS pH 7.2, fixed with 4% paraformaldehyde in PBS, washed again and permeabilized with 0.1% Triton-X100 for 10 minutes. Finally, the coverslips were stained and mounted on specimen slides (Biosigma). […] Therefore, the emission of green fluorescence (at 485/520 nm) is stable and is produced after the DNA binding, and therefore its signal is mainly located in the nucleus and in the mitochondria. Fluorescence was detected using a Spectral Confocal Leica TCS SP2 AOBS microscope. […]

For data set [2], the system named is 4T1 tumors. Description: In vivo magnetic targeting and antitumor activity. Particulars: day 15, 2 mg/kg DOXO i.v. x5. On the set-up: species or system BALB/c mice. The text has this:
Female BALB/c mice were inoculated with 10^5 4T1 cells into a mammary gland fat pad. […] The 6 groups were intravenously injected and treated as follows: i) PBS (control), ii-iii) DOXO-BMNPs +/−gradient magnetic field, iv-v) BMNPs +/−gradient magnetic field, and vi) soluble DOXO. […] The magnetic field was applied by attaching a 10 mm in diameter×3 mm thick N42 neodymium magnet (1.8 kg pull, Magnet Expert Ltd) with 3MTM Vetbond™ tissue adhesive on the tumor site and keeping it attached for 1 hour after the injection. This neodymium magnet, with a magnetic anisotropy normal to the plane and a saturation magnetization of 800 emu/cc, could generate a direct current (d.c.) magnetic field of the order of 100 Oe a few millimeters from the surface. Therefore, the effect of the magnet is equivalent to the application of a local 100-Oe external d.c. magnetic field immediately after the administration of the nanoparticles. Throughout the study, body weight and tumor volumes (measured with caliper) were recorded every 3-4 days. Three days after the last injections (day 18), mice were euthanized, their weights, as well as, tumor weights were recorded and, then, tumors, hearts, livers, spleens, brains, lungs, and kidneys were collected for histology. Histological sections of the tumors were prepared for hematoxylin-eosin and Prussian blue staining to analyze particle biodistribution.

The subject of data set [3] is 4T1 cells. Description: Confocal analysis of DOXO internalization. Type of data set: cell-based, murine. Particulars: soluble drug, positive control. The protocol:
Cells (approximately 20×10^3 4T1/well) were seeded on glass coverslips in 24-well plates and, after 24 h, soluble DOXO (as a positive control) or DOXO-BMNP suspensions were added. After incubation at 37° C. for different periods of time (30 seconds, 5 and 30 minutes) in the absence (−GMF) and in the presence (+GMF) of a gradient magnetic field, coverslips were washed with fresh PBS pH 7.2 and fixed with paraformaldehyde (2% wt in PBS). To minimize unspecific interactions and permeabilize cells, coverslips were washed with Tris-Buffered Saline (TBS) containing 5% Bovine Serum Albumin (BSA), 0.1% Triton X-100 and 5% got serum and then stained. In particular cytoskeletal actin microfilaments were stained with FITC-phalloidin (Sigma-Aldrich, excitation at 488 nm; emission at 500-535 nm) and nuclei were stained with TO-PRO-3 (1/70, Life Technologies; excitation at 633 nm; emission at 650-750 nm). DOXO was detected after excitation at 476 nm and emission at 575-630 nm. Fluorescence was detected using a Leica TCS SP2 AOBS Spectral Confocal Scanner microscope. Images were taken at 400× magnification. ImageJ software was used for analysis.

SMILES strings stand for the structures.

As to `CC1=CC(=O)c2ccccc2C1=O` [Menadione], in data set [1], the ROS release entry is recorded as “clearly visible”.

On to `COc1cccc2c1C(=O)c1c(O)c3c(c(O)c1C2=O)C[C@@](O)(C(=O)CO)C[C@@H]3O[C@H]1C[C@H](N)[C@H](O)[C@H](C)O1` [soluble DOXO, doxorubicin], for which the tumor volume entry in data set [2] is listed as “significantly reduced”. In addition, the “internalization of DOXO in cell nuclei (confocal)” value in data set [3] is recorded as “detected only after 5 min”.

(Values after US20220143212A1, “MAMC-MEDIATED BIOMIMETIC NANOPARTICLES” (UNIVERSIDAD DE GRANADA, priority 2018, published 2022).)
